{"source": "patent US10954252B1", "about": "“Inhibitors of human immunodeficiency virus replication” (ViiV HEALTHCARE UK (NO.5) LIMITED, priority 2017, dated 2021)", "key": {"[1]": {"tested_on": "recombinant NL4-3 virus (nef section replaced with Renilla luciferase gene) in MT-2 cells", "assay": "HIV cell culture assay (antiviral activity, luciferase readout)", "format": "cell-based", "conditions": "MT-2 cells infected for 4-5 days with recombinant NL4-3 luciferase virus", "procedure,_shortened": "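Serially diluted compounds were present throughout a 4-5 day infection of MT-2 cells by recombinant NL4-3 whose nef region partly encodes Renilla luciferase. Antiviral activity was taken from live-cell luciferase signal, with the 50% effective concentration fitted by the exponential median effect equation.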"}, "uninfected MT2 cells": {"tested_on": "uninfected MT2 cells", "assay": "Compound cytotoxicity, XTT-based colorimetric assay", "format": "cell-based", "procedure,_shortened": "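XTT colorimetric read-out on day 4 gave CC50 values, using MT2 cells left uninfected but otherwise handled as in the antiviral assay.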"}}}
{"smiles": "Cn1nc(NS(C)(=O)=O)c2c(Cl)ccc(-n3c([C@H](Cc4cc(F)cc(F)c4)NC(=O)Cn4nc(C(F)F)c5c4C(F)(F)[C@@H]4C[C@H]54)nc4cc(C(C)(C)S(C)(=O)=O)ccc4c3=O)c21", "note": "(mixture of isomers) [Example 208, N—((S)-1-(3-(4-chloro-1-methyl-3-(methylsulfonamido)-1H-indazol-7-yl)-7-(2-(methylsulfonyl)propan-2-yl)-4-oxo-3,4-dihydroquinazolin-2-yl)-2-(3,5-difluorophenyl)ethyl)-2-((3bS,4aR)-3-(difluoromethyl)-5,5-difluoro-3b,4,4a,5-tetrahydro-1H-cyclopropa[3,4]cyclopenta[1,2-c]pyrazol-1-yl)acetamide]", "values": [{"measurement": "EC50", "setting": "[1]; Table 1a", "value": 0.083, "unit": "nM"}, {"measurement": "CC50", "setting": "uninfected MT2 cells; Table 1a, day 4, XTT", "value": "> 1000", "unit": "nM"}]}
{"smiles": "Cn1ccc2nc([C@@H](Cc3cc(F)cc(F)c3)NC(=O)Cn3nc(C(F)F)c4c3C(F)(F)[C@@H]3C[C@H]43)c(-c3ccc(Cl)c4c(NS(C)(=O)=O)nn(C)c34)cc21", "note": "(single isomer, unassigned) [Example 122]", "values": [{"measurement": "EC50", "setting": "[1]; Table 1a", "value": 172, "unit": "nM"}, {"measurement": "CC50", "setting": "uninfected MT2 cells; Table 1a, day 4, XTT", "value": "> 10000", "unit": "nM"}]}
{"smiles": "Cn1nc(NS(C)(=O)=O)c2c(Cl)ccc(-c3cc4[nH]ccc4nc3C(Cc3cc(F)cc(F)c3)NC(=O)Cn3nc(C(F)F)c4c3C(F)(F)[C@@H]3C[C@H]43)c21", "note": "(single isomer, unassigned) [Example 5.2]", "values": [{"measurement": "EC50", "setting": "[1]; Table 1", "value": 400, "unit": "nM"}, {"measurement": "CC50", "setting": "uninfected MT2 cells; Table 1, day 4, XTT", "value": "> 10000", "unit": "nM"}]}
{"smiles": "Cn1nc(NS(C)(=O)=O)c2c(Cl)ccc(-n3c([C@H](Cc4cc(F)cc(F)c4)NC(=O)Cn4ccc(C5CC5)n4)nc4ccc(OC(F)(F)F)cc4c3=O)c21", "note": "(single isomer, unassigned) [Example 153]", "values": [{"measurement": "EC50", "setting": "[1]; Table 1a", "value": 0.97, "unit": "nM"}, {"measurement": "CC50", "setting": "uninfected MT2 cells; Table 1a, day 4, XTT", "value": "> 1000", "unit": "nM"}]}
{"smiles": "Cc1cccc2nc([C@H](Cc3cc(F)cc(F)c3)NC(=O)Cn3ccc(C4CC4)n3)n(-c3ccc(Cl)c4c(NS(C)(=O)=O)nn(C)c34)c(=O)c12", "note": "(single isomer, unassigned) [Example 134]", "values": [{"measurement": "EC50", "setting": "[1]; Table 1a", "value": 2.21, "unit": "nM"}, {"measurement": "CC50", "setting": "uninfected MT2 cells; Table 1a, day 4, XTT", "value": "> 1000", "unit": "nM"}]}
{"smiles": "Cn1nc(NS(C)(=O)=O)c2c(Cl)ccc(-n3c([C@H](Cc4cc(F)cc(F)c4)NC(=O)Cn4ccc(C(F)(F)F)n4)nc4ccc(OC(F)(F)F)cc4c3=O)c21", "note": "(single isomer, unassigned) [Example 144]", "values": [{"measurement": "EC50", "setting": "[1]; Table 1a", "value": 8.08, "unit": "nM"}, {"measurement": "CC50", "setting": "uninfected MT2 cells; Table 1a, day 4, XTT", "value": "> 1000", "unit": "nM"}]}
{"smiles": "COc1c(F)cc2c(=O)n(-c3ccc(Cl)c4c(NS(C)(=O)=O)nn(C)c34)c([C@H](Cc3cc(F)cc(F)c3)NC(=O)Cn3ccc(C4CC4)n3)nc2c1F", "note": "(single isomer, unassigned) [Example 116]", "values": [{"measurement": "EC50", "setting": "[1]; Table 1a", "value": 0.231, "unit": "nM"}, {"measurement": "CC50", "setting": "uninfected MT2 cells; Table 1a, day 4, XTT", "value": "> 1000", "unit": "nM"}]}
{"smiles": "COc1ccc2c(=O)n(-c3ccc(Cl)c4c(NS(C)(=O)=O)nn(CC(F)F)c34)c([C@H](Cc3cc(F)cc(F)c3)NC(=O)Cn3ccc(C4CC4)n3)nc2n1", "note": "(atropisomer, axis not shown) [Example 55.2, N-[(1S)-1-{3-[4-chloro-1-(2,2-difluoroethyl)-3-methanesulfonamido-1H-indazol-7-yl]-7-methoxy-4-oxo-3H,4H-pyrido[2,3-d]pyrimidin-2-yl}-2-(3,5-difluorophenyl)ethyl]-2-(3-cyclopropyl-1H-pyrazol-1-yl)acetamide]", "values": [{"measurement": "EC50", "setting": "[1]; Table 1a", "value": 0.33, "unit": "nM"}, {"measurement": "CC50", "setting": "uninfected MT2 cells; Table 1a, day 4, XTT", "value": "> 1000", "unit": "nM"}]}
{"smiles": "Cn1nc(NS(C)(=O)=O)c2c(Cl)ccc(-n3c([C@H](Cc4cc(F)cc(F)c4)NC(=O)Cn4nc(C(F)F)c5c4C(F)(F)[C@@H]4C[C@H]54)nc4cc(Cl)ccc4c3=O)c21", "note": "(mixture of isomers) [Example 168, N—((S)-1-(7-chloro-3-(4-chloro-1-methyl-3-(methylsulfonamido)-1H-indazol-7-yl)-4-oxo-3,4-dihydroquinazolin-2-yl)-2-(3,5-difluorophenyl)ethyl)-2-((3bS,4aR)-3-(difluoromethyl)-5,5-difluoro-3b,4,4a,5-tetrahydro-1H-cyclopropa[3,4]cyclopenta[1,2-c]pyrazol-1-yl)acetamide]", "values": [{"measurement": "EC50", "setting": "[1]; Table 1a", "value": 0.058, "unit": "nM"}, {"measurement": "CC50", "setting": "uninfected MT2 cells; Table 1a, day 4, XTT", "value": "> 1000", "unit": "nM"}]}
{"smiles": "Cn1nc(NS(C)(=O)=O)c2c(Cl)ccc(-c3cc4scnc4nc3C(Cc3cc(F)cc(F)c3)NC(=O)Cn3nc(C(F)F)c4c3C(F)(F)[C@@H]3C[C@H]43)c21", "note": "(single isomer, unassigned) [Example 1.6]", "values": [{"measurement": "EC50", "setting": "[1]; Table 1", "value": 1780, "unit": "nM"}, {"measurement": "CC50", "setting": "uninfected MT2 cells; Table 1, day 4, XTT", "value": "> 10000", "unit": "nM"}]}
{"smiles": "Cn1nc(NS(C)(=O)=O)c2c(Cl)ccc(-n3c([C@H](Cc4cc(F)cc(F)c4)NC(=O)Cn4nc(C(F)F)c5c4C(F)(F)[C@@H]4C[C@H]54)nc4cccc(C(F)(F)F)c4c3=O)c21", "note": "(single isomer, unassigned) [Example 128]", "values": [{"measurement": "EC50", "setting": "[1]; Table 1a", "value": 0.62, "unit": "nM"}, {"measurement": "CC50", "setting": "uninfected MT2 cells; Table 1a, day 4, XTT", "value": "> 1000", "unit": "nM"}]}
{"smiles": "COc1cc(F)c2c(=O)n(-c3ccc(Cl)c4c(NS(C)(=O)=O)nn(C)c34)c([C@H](Cc3cc(F)cc(F)c3)NC(=O)Cn3nc(C(F)F)c4c3C(F)(F)[C@@H]3C[C@H]43)nc2c1", "note": "(single isomer, unassigned) [Example 187]", "values": [{"measurement": "EC50", "setting": "[1]; Table 1a", "value": 178, "unit": "nM"}, {"measurement": "CC50", "setting": "uninfected MT2 cells; Table 1a, day 4, XTT", "value": "> 1000", "unit": "nM"}]}
{"smiles": "O=C(Cn1nc(C(F)F)c2c1C(F)(F)[C@@H]1C[C@H]21)NC(Cc1cc(F)cc(F)c1)c1nc2ncsc2cc1-c1ccc2scnc2c1", "note": "(single isomer, unassigned) [Example 1.2]", "values": [{"measurement": "EC50", "setting": "[1]; Table 1", "value": 2850, "unit": "nM"}, {"measurement": "CC50", "setting": "uninfected MT2 cells; Table 1, day 4, XTT", "value": "> 33300", "unit": "nM"}]}
{"smiles": "Cn1nc(NS(C)(=O)=O)c2c(Cl)ccc(-c3cc4scnc4nc3C(Cc3cc(F)cc(F)c3)NC(=O)Cn3nc(C(F)F)c4c3C(F)(F)[C@@H]3C[C@H]43)c21", "note": "(single isomer, unassigned) [Example 1.3]", "values": [{"measurement": "EC50", "setting": "[1]; Table 1", "value": 0.3, "unit": "nM"}, {"measurement": "CC50", "setting": "uninfected MT2 cells; Table 1, day 4, XTT", "value": "> 10000", "unit": "nM"}]}
{"smiles": "COc1c(F)ccc2c(=O)n(-c3ccc(Cl)c4c(NS(C)(=O)=O)nn(C)c34)c([C@H](Cc3cc(F)cc(F)c3)NC(=O)Cn3ccc(C4CC4)n3)nc12", "note": "(single isomer, unassigned) [Example 112]", "values": [{"measurement": "EC50", "setting": "[1]; Table 1a", "value": 0.51, "unit": "nM"}, {"measurement": "CC50", "setting": "uninfected MT2 cells; Table 1a, day 4, XTT", "value": "> 1000", "unit": "nM"}]}
{"smiles": "Cn1nc(NS(C)(=O)=O)c2c(Cl)ccc(-n3c([C@H](Cc4cc(F)cc(F)c4)NC(=O)Cn4nc(C(F)F)c5c4C(F)(F)[C@@H]4C[C@H]54)nc4cc(S(C)(=O)=O)ccc4c3=O)c21", "note": "(mixture of isomers) [Example 200, N—((S)-1-(3-(4-chloro-1-methyl-3-(methylsulfonamido)-1H-indazol-7-yl)-7-(methylsulfonyl)-4-oxo-3,4-dihydroquinazolin-2-yl)-2-(3,5-difluorophenyl)ethyl)-2-((3bS,4aR)-3-(difluoromethyl)-5,5-difluoro-3b,4,4a,5-tetrahydro-1H-cyclopropa[3,4]cyclopenta[1,2-c]pyrazol-1-yl)acetamide]", "values": [{"measurement": "EC50", "setting": "[1]; Table 1a", "value": 0.2, "unit": "nM"}, {"measurement": "CC50", "setting": "uninfected MT2 cells; Table 1a, day 4, XTT", "value": "> 1000", "unit": "nM"}]}
{"smiles": "O=C(Cc1c[nH]c2ccc(O)cc12)NC(Cc1cc(F)cc(F)c1)c1nc2cn[nH]c2cc1-c1ccc2scnc2c1", "note": "(single isomer, unassigned) [Example 3.4, N-(1-(6-(benzo[d]thiazol-5-yl)-1H-pyrazolo[4,3-b]pyridin-5-yl)-2-(3,5-difluorophenyl)ethyl)-2-(5-hydroxy-1H-indol-3-yl)acetamide]", "values": [{"measurement": "EC50", "setting": "[1]; Table 1", "value": 470, "unit": "nM"}, {"measurement": "CC50", "setting": "uninfected MT2 cells; Table 1, day 4, XTT", "value": 83900, "unit": "nM"}]}
{"smiles": "O=C(Cn1nc(C(F)F)c2c1C(F)(F)[C@@H]1C[C@H]21)N[C@H](Cc1cc(F)cc(F)c1)c1nc2cn[nH]c2cc1-c1ccc2scnc2c1", "note": "(single isomer, unassigned) [Example 3.2]", "values": [{"measurement": "EC50", "setting": "[1]; Table 1", "value": 960, "unit": "nM"}, {"measurement": "CC50", "setting": "uninfected MT2 cells; Table 1, day 4, XTT", "value": 12700, "unit": "nM"}]}
{"smiles": "Cn1nc(NS(C)(=O)=O)c2c(Cl)ccc(-n3c([C@H](Cc4cc(F)cc(F)c4)NC(=O)Cn4ccc(C5CC5)n4)nc4cc(C(F)(F)F)ccc4c3=O)c21", "note": "(single isomer, unassigned) [Example 151]", "values": [{"measurement": "EC50", "setting": "[1]; Renilla, NL43, Table 1a", "value": 0.74, "unit": "nM"}, {"measurement": "CC50", "setting": "uninfected MT2 cells; Table 1a, day 4, XTT", "value": "> 1000", "unit": "nM"}]}
{"smiles": "Cc1nc2nc(C(Cc3cc(F)cc(F)c3)NC(=O)Cn3nc(C(F)F)c4c3C(F)(F)[C@@H]3C[C@H]43)c(-c3ccc(Cl)c4c(NS(C)(=O)=O)nn(C)c34)cc2s1", "note": "(single isomer, unassigned) [Example 2.2]", "values": [{"measurement": "EC50", "setting": "[1]; Table 1", "value": 1150, "unit": "nM"}, {"measurement": "CC50", "setting": "uninfected MT2 cells; Table 1, day 4, XTT", "value": "> 10000", "unit": "nM"}]}
